Reference: patent US7045138B2, “Composition for mitigation of insects and/or mollusca” (American Natural Technology Sciences, Inc., priority 2000, dated 2006)

Test system: Fire Ants
Test: Fire ant mound field tests of bait/borate formulations
Assay type: in vivo, Solenopsis invicta
Protocol: The following components were tested either alone or in combinations for their ability to attract Fire Ants: • 1. Cow manure dropping in an infested area; • 2. Pelletized cow manure; • 3. Milk; • 4. Powdered, fresh and pelletized whey; • 5. Sugar solutions of varying concentrations; • 6. Raw fruit and vegetables of various kinds and concentrates; • 7. Various soft drinks containing sugar; • 8. Bacon and other raw meats; • 9. Vegetable and animal oils, both in liquid or solid; • 10. Dog and cat foods in bags, cans, or packaged in some other manner; • 11. Corn or other vegetable products in the form of meal, syrup, cracked, particles and flakes and other particles; • 12. Wheat and rice as bleached and unbleached, flower or granules; • 13. Millet seeds whole and crushed; • 14. Sunflower seeds whole, crushed and with various vegetable oils added; • 15. Microcapsules of whey and other materials, made to hold various, foods, etc.; and • 16. Capsules made of various vegetable water, sugar, starches, proteins, etc. that contain the bait and/or borates and/or DE.
Mounds were selected of varying sizes measured in diameter: • 1. Small mound (1 inch to 6 inches) • 2. Medium mound (6 inches to 3.0 feet) • 3. Large mound (3.0 feet and larger) • 4. Control
When possible, isolated mounds were selected.
The formulations were tested individually at different sites: • 1. Standard was one level teaspoon for a small mound, two for a medium mound and three or more for a large mound; and • 2. Volume vs. weight was noted.
The following data was collected for each site: • 1. Location • 2. Data and time of application • 3. Observation are conducted at: • a. One hour; • b. Four hours; • c. Twelve hours; • d. One day; • e. Two days; • f. Four days; • g. Eight days; • h. Sixteen days; and • i. Intermittent observations based upon climatic conditions. • 4. Weather data collected include: • a. Temperature; • b. Humidity; • c. Rainfall (time of day and extent); and • d. Wind speed and direction • 5. General observations
The time of application is preferably near evening (5 p.m. or later) or early morning (5 a.m. to 9 a.m.).

Substance	degree of control (DOT combined with whey bait)	acceptance by the Fire Ants (incorporated with the baits tested)	acceptable formulation level for control into the second generation (preliminary data)	acceptable formulation level for first generation control (preliminary data)	performance (5% substituted for the DOT, with whey)
Disodium octoborate tetrahydrate [DOT]	high degree of control	readily accepted	~1.0%	~0.05 % of the formulation	
calcium borate					superior performance
